Measured values reported in ChEMBL document CHEMBL1147965, “Dual irreversible kinase inhibitors: quinazoline-based inhibitors incorporating two independent reactive centers with each targeting different cysteine residues in the kinase domains of EGFR and VEGFR-2” (Bioorg Med Chem, 2007).
pIC50: −log10 of the molar value.

What was measured:
[1] = biological target: T1, Vascular endothelial growth factor receptor 2 (Homo sapiens, UniProt P35968); test: Inhibition of human VEGFR2 in presence of 1 uM ATP
[2] = biological target: T1, Vascular endothelial growth factor receptor 2; test: Inhibition of human VEGFR2 in presence of 1 mM ATP
[3] = biological target: T2, Epidermal growth factor receptor (Homo sapiens, UniProt P00533); test: Inhibition of human EGFR in presence of 1 mM ATP
[4] = biological target: T2, Epidermal growth factor receptor; test: Inhibition of human EGFR in presence of 1 uM ATP

T1 sequence (P35968 whole entry): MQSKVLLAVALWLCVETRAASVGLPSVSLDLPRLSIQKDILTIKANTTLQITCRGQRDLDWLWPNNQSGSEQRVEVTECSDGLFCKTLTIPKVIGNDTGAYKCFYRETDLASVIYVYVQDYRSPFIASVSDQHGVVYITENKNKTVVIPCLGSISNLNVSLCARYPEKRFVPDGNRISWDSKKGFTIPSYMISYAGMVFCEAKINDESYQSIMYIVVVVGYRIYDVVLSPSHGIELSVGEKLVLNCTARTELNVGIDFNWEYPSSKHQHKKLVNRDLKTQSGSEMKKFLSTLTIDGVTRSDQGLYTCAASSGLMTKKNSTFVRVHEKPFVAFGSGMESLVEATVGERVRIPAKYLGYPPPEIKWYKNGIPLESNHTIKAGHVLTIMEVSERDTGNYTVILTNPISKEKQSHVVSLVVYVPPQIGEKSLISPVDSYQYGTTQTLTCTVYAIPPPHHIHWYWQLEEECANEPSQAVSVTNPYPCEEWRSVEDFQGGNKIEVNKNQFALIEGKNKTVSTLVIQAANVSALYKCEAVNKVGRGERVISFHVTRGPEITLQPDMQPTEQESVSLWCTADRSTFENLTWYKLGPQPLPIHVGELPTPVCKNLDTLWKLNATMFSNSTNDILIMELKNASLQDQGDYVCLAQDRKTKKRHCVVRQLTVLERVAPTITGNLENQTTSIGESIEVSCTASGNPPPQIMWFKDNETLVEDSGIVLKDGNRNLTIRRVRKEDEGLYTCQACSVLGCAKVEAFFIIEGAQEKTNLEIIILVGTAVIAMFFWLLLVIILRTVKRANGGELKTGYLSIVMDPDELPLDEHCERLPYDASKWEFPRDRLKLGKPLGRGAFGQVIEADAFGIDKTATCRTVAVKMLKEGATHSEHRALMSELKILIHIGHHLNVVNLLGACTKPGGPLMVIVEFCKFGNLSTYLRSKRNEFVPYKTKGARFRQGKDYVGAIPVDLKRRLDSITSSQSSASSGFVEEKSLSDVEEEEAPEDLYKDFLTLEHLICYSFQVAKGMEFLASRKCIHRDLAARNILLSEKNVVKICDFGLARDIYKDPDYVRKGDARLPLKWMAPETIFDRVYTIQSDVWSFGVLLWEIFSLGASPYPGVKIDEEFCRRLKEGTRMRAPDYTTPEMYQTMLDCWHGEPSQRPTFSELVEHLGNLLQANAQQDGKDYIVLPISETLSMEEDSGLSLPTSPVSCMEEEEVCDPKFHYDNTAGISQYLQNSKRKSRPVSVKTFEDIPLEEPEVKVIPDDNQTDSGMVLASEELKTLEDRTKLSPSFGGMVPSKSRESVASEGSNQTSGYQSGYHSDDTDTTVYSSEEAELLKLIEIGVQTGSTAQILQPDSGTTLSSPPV
T2 sequence (P00533 whole entry): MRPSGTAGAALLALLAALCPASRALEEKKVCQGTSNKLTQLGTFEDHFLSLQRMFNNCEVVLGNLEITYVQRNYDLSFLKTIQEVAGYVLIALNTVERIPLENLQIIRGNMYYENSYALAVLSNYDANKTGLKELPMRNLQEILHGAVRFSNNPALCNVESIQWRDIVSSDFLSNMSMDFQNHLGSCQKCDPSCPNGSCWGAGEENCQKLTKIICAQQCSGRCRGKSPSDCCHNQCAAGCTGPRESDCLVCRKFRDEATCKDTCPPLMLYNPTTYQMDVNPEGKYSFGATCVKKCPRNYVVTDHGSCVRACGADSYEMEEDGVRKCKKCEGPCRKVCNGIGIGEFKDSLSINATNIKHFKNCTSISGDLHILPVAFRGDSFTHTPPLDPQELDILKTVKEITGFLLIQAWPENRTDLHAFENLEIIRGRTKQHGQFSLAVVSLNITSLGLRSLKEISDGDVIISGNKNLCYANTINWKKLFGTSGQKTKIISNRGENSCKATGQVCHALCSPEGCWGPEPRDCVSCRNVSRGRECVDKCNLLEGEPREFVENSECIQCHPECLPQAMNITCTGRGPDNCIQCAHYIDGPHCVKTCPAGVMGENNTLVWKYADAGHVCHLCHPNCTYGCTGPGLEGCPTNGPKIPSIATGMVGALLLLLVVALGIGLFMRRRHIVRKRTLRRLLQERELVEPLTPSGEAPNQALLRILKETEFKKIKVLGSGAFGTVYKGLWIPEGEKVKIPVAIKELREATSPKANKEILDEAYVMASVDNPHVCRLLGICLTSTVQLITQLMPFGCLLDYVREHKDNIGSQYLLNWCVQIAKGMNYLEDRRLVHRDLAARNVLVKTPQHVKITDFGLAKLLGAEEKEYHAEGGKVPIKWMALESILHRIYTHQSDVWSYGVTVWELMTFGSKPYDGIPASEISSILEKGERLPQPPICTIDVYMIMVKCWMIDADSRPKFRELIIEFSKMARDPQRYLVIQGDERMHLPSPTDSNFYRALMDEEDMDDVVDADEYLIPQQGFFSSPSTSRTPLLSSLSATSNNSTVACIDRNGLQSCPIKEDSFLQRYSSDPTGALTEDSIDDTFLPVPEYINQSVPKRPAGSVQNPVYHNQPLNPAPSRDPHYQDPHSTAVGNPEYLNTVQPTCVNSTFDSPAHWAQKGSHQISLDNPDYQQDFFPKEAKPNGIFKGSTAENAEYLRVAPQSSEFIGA

Compound | pIC50 [1] | pIC50 [2] | pIC50 [3] | pIC50 [4]
CCOc1cc2ncnc(NC3=CC(=O)C(OCc4cccc(OC)c4)=CC3=O)c2cc1NC(=O)/C=C/CN(C)C | 6.43 | 5.89 | 6.46 | 6.97
CCOc1cc2ncnc(NC3=CC(=O)C(OCc4cccc(C)c4)=CC3=O)c2cc1NC(=O)/C=C/CN(C)C | 6.72 | 6.21 | 6.76 | 7.60
CN(C)C/C=C/C(=O)Nc1ccc2ncnc(Nc3ccc(Br)cc3F)c2c1 | – | – | 6.15 | > 8.00
COCCOc1cc2ncnc(NC3=CC(=O)C(OCc4cccc(OC)c4)=CC3=O)c2cc1OC | 7.30 | 6.60 | < 5.00 | 5.11
COCCOc1cc2ncnc(NC3=CC(=O)C(OCc4ccccc4)=CC3=O)c2cc1OC | 7.27 | 6.85 | < 5.00 | < 5.00
CCOc1cc2ncnc(NC3=CC(=O)C(OC(CF)CF)=CC3=O)c2cc1NC(=O)/C=C/CN(C)C | 6.96 | 6.52 | 5.68 | 6.55
CCOc1cc2ncnc(NC3=CC(=O)C(OCc4ccc(F)c(F)c4)=CC3=O)c2cc1NC(=O)/C=C/CN(C)C | 6.95 | 6.26 | 6.05 | 6.78
CCOc1cc2ncnc(NC3=CC(=O)C(OCc4ccccc4)=CC3=O)c2cc1NC(=O)/C=C/CN(C)C | 6.99 | 6.11 | 6.67 | 7.73
CCOc1cc2ncnc(NC3=CC(=O)C(OCc4cccc(Cl)c4)=CC3=O)c2cc1NC(=O)/C=C/CN(C)C | 7.10 | 6.75 | 7.45 | 7.91
CCOc1cc2ncnc(NC3=CC(=O)C(OCc4cccs4)=CC3=O)c2cc1NC(=O)/C=C/CN(C)C | 7.12 | 6.53 | 6.53 | 7.32
COc1cc2ncnc(Nc3cccc(Br)c3)c2cc1OC | 5.83 | < 5.00 | – | –
COCCOc1cc2ncnc(NC3=CC(=O)C(OCc4cccc(F)c4)=CC3=O)c2cc1OC | 7.34 | 6.73 | < 5.00 | < 5.00
CCOc1cc2ncnc(NC3=CC(=O)C(OCc4ccccn4)=CC3=O)c2cc1NC(=O)/C=C/CN(C)C | 6.87 | 6.00 | 6.10 | 7.04
CCOc1cc2ncnc(NC3=CC(=O)C(OC)=CC3=O)c2cc1NC(=O)/C=C/CN(C)C | 6.42 | 5.85 | < 5.00 | 6.10
CCOc1cc2ncnc(NC3=CC(=O)C(OCc4cccc(F)c4)=CC3=O)c2cc1NC(=O)/C=C/CN(C)C | 6.95 | 6.46 | 7.37 | 8.39
CCOc1cc2ncc(C#N)c(Nc3ccc(OCc4ccccn4)c(Cl)c3)c2cc1NC(=O)/C=C/CN(C)C [NERATINIB] | 6.07 | < 5.00 | – | –
CCOc1cc2ncc(C#N)c(Nc3ccc(F)c(Cl)c3)c2cc1NC(=O)/C=C/CN(C)C [PELITINIB] | 5.50 | < 5.00 | – | –
